Drawing on US6958346B2, “4-heteroaryl-tetrahydroquinolines and their use as inhibitors of the cholesterin-ester transfer protein” (Bayer Aktiengesellschaft, priority 1997, dated 2005), this text covers IC50 and melting point for 3 compounds.

Molecules are shown by their SMILES.

Series [1] deals with T1, cholesterol ester transfer protein (CETP) (Homo sapiens, UniProt P11597).
T1 construct: CETP is obtained in partially purified form from human plasma by differential centrifugation and column chromatography; from tissue; host or cells: human plasma
T1 sequence (P11597 18-493): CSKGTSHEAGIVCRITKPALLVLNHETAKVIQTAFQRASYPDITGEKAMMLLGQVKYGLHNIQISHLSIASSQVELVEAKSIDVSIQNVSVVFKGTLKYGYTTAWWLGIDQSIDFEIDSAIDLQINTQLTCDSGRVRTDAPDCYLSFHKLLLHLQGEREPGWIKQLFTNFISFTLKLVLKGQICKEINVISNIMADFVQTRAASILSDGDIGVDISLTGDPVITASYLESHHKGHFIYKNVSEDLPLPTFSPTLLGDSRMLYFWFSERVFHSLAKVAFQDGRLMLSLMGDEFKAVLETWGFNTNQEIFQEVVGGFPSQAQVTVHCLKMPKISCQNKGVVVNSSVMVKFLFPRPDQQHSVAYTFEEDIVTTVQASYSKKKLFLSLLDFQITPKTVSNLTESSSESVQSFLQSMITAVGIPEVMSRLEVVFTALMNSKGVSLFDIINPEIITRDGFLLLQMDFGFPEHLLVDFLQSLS
Description: CETP inhibition test (transfer of 3H-cholesterol ester from human HDL to biotinylated LDL, SPA). Format: biochemical. To be noted: CETP partially purified from human plasma; 37° C., 18 h; concentration at which transfer is reduced by half. On the procedure:
CETP is obtained in partially purified form from human plasma by differential centrifugation and column chromatography and used for the test. For this purpose, human plasma is adjusted to a density of 1.21 g per ml using NaBr and centrifuged at 50,000 rpm at 4° C. for 18 h. The bottom fraction (d>1.21 g/ml) is applied to a Sephadex®Phenyl-Sepharose 4B (Pharmacia) column, washed with 0.15 m NaCl/0.001 m TrisHCl pH 7.4 and subsequently eluted using dist. water. The CETP-active fractions are pooled, dialysed against 50 mM Na-acetate pH 4.5 and applied to a CM-Sepharose® (Pharmacia) column. Elution is subsequently carried out using a linear gradient (0-1 M NaCl). The pooled CETP fractions are dialysed against 10 mM TrisHCl pH 7.4 and subsequently purified further by chromatography over a Mono Q® column (Pharmacia).
50 ml of fresh human EDTA plasma are adjusted to a density of 1.12 using NaBr and centrifuged at 4° C. in a Ty 65 rotor at 50,000 rpm for 18 h. The upper phase is used to obtain cold LDL. […]
To test the CETP activity, the transfer of ^3H-cholesterol ester from human HD-lipoproteins to biotinylated LD-lipoproteins is measured.
The reaction is terminated by addition of Streptavidin-SPA® beads (Amersham) and the transferred radioactivity is directly determined in a liquid scintillation counter. […]

In series [1], `CC1(C)CC(=O)c2c(nc(C3CCCC3)c(C(=O)c3ccc(C(F)(F)F)cc3)c2-c2ccsc2)C1` [Example 1, 2-Cyclopentyl-7,7-dimethyl-4-(3-thienyl)-3-(4-trifluoromethylbenzoyl)-5,6,7,8-tetrahydro-quinolin-5-one] had an IC50 of 10 nM.

With `CC1(C)CC(=O)c2c(nc(C3CCCC3)c(C(=O)c3ccc(C(F)(F)F)cc3)c2-c2ccncc2)C1` [Example 2], the melting point lay in the range of 221 to 224 °C.

As to `CC1(C)CC(=O)c2c(nc(C3CCCC3)c(C(=O)c3ccc(C(F)(F)F)cc3)c2C2CCCCC2)C1` [Example 3], the melting point lay within 185 to 186 °C.
